Reference: the NIST ThermoML archive (doi:10.1021/je060283w)

Assay: relative permittivity at zero frequency (dimensionless)
Conditions: Parallel plate capacitor

COC [dimethyl ether]
Conditions	relative permittivity at zero frequency
303.7 K, 180 kPa, Gas	1.016
303.7 K, 320 kPa, Gas	1.025
303.7 K, 440 kPa, Gas	1.032
303.7 K, 460 kPa, Gas	1.034
303.7 K, 500 kPa, Gas	1.037
303.7 K, 530 kPa, Gas	1.039
303.7 K, 660 kPa, Gas	1.084
303.7 K, 6300 kPa, Liquid	5.34
303.7 K, 8000 kPa, Liquid	5.37
303.7 K, 10200 kPa, Liquid	5.41
303.7 K, 12200 kPa, Liquid	5.44
303.7 K, 14200 kPa, Liquid	5.47
303.7 K, 16300 kPa, Liquid	5.5
303.7 K, 17600 kPa, Liquid	5.52
303.7 K, 20200 kPa, Liquid	5.56
303.7 K, 22400 kPa, Liquid	5.59
303.7 K, 24200 kPa, Liquid	5.62
303.7 K, 25900 kPa, Liquid	5.64
303.7 K, 27500 kPa, Liquid	5.66
313.3 K, 80 kPa, Gas	1.011
313.3 K, 150 kPa, Gas	1.015
313.3 K, 460 kPa, Gas	1.034
313.3 K, 510 kPa, Gas	1.037
313.3 K, 560 kPa, Gas	1.041
313.3 K, 770 kPa, Gas	1.057
313.3 K, 870 kPa, Gas	1.142
313.3 K, 2300 kPa, Liquid	5
313.3 K, 4400 kPa, Liquid	5.05
313.3 K, 6300 kPa, Liquid	5.1
313.3 K, 8300 kPa, Liquid	5.14
313.3 K, 10200 kPa, Liquid	5.16
313.3 K, 12200 kPa, Liquid	5.2
313.3 K, 14300 kPa, Liquid	5.24
313.3 K, 16300 kPa, Liquid	5.27
313.3 K, 18000 kPa, Liquid	5.3
313.3 K, 20400 kPa, Liquid	5.33
313.3 K, 22000 kPa, Liquid	5.35
313.3 K, 24300 kPa, Liquid	5.39
313.3 K, 26100 kPa, Liquid	5.41
313.3 K, 28200 kPa, Liquid	5.44
313.3 K, 29600 kPa, Liquid	5.46
323 K, 50 kPa, Gas	1.01
323 K, 100 kPa, Gas	1.012
323 K, 240 kPa, Gas	1.02
323 K, 450 kPa, Gas	1.033
323 K, 530 kPa, Gas	1.038
323 K, 700 kPa, Gas	1.049
323 K, 1080 kPa, Gas	1.118
323 K, 1300 kPa, Liquid	4.72
323 K, 2200 kPa, Liquid	4.74
323 K, 4200 kPa, Liquid	4.8
323 K, 6200 kPa, Liquid	4.85
323 K, 8200 kPa, Liquid	4.89
323 K, 10400 kPa, Liquid	4.93
323 K, 12400 kPa, Liquid	4.97
323 K, 14200 kPa, Liquid	5.01
323 K, 16400 kPa, Liquid	5.04
323 K, 18300 kPa, Liquid	5.07
323 K, 19800 kPa, Liquid	5.1
323 K, 22000 kPa, Liquid	5.13
323 K, 24000 kPa, Liquid	5.17
323 K, 26300 kPa, Liquid	5.2
323 K, 27900 kPa, Liquid	5.23
323 K, 29400 kPa, Liquid	5.25
323 K, 31200 kPa, Liquid	5.27
333.4 K, 430 kPa, Gas	1.03
333.4 K, 460 kPa, Gas	1.031
333.4 K, 540 kPa, Gas	1.036
333.4 K, 710 kPa, Gas	1.047
333.4 K, 850 kPa, Gas	1.057
333.4 K, 1050 kPa, Gas	1.071
333.4 K, 1380 kPa, Gas	1.122
333.4 K, 2200 kPa, Liquid	4.46
333.4 K, 4300 kPa, Liquid	4.52
333.4 K, 6400 kPa, Liquid	4.58
333.4 K, 8300 kPa, Liquid	4.62
333.4 K, 10200 kPa, Liquid	4.67
333.4 K, 12200 kPa, Liquid	4.71
333.4 K, 14000 kPa, Liquid	4.74
333.4 K, 15800 kPa, Liquid	4.78
333.4 K, 17200 kPa, Liquid	4.81
333.4 K, 22000 kPa, Liquid	4.89
333.4 K, 23800 kPa, Liquid	4.92
333.4 K, 25800 kPa, Liquid	4.95
333.4 K, 27600 kPa, Liquid	4.97
333.4 K, 29400 kPa, Liquid	4.99
343.2 K, 60 kPa, Gas	1.01
343.2 K, 120 kPa, Gas	1.013
343.2 K, 220 kPa, Gas	1.018
343.2 K, 390 kPa, Gas	1.027
343.2 K, 430 kPa, Gas	1.029
343.2 K, 490 kPa, Gas	1.032
343.2 K, 550 kPa, Gas	1.035
343.2 K, 610 kPa, Gas	1.039
343.2 K, 740 kPa, Gas	1.044
343.2 K, 930 kPa, Gas	1.059
343.2 K, 1090 kPa, Gas	1.069
343.2 K, 1240 kPa, Gas	1.08
343.2 K, 1550 kPa, Gas	1.106
343.2 K, 1730 kPa, Gas	1.166
343.2 K, 2600 kPa, Liquid	4.21
343.2 K, 4000 kPa, Liquid	4.25
343.2 K, 6000 kPa, Liquid	4.32
343.2 K, 8200 kPa, Liquid	4.38
343.2 K, 10200 kPa, Liquid	4.43
343.2 K, 12200 kPa, Liquid	4.48
343.2 K, 14400 kPa, Liquid	4.52
343.2 K, 16300 kPa, Liquid	4.56
343.2 K, 18000 kPa, Liquid	4.59
343.2 K, 20200 kPa, Liquid	4.64
343.2 K, 21900 kPa, Liquid	4.67
343.2 K, 23400 kPa, Liquid	4.69
343.2 K, 27700 kPa, Liquid	4.76
343.2 K, 30400 kPa, Liquid	4.8
343.2 K, 33200 kPa, Liquid	4.84
353.1 K, 40 kPa, Gas	1.01
353.1 K, 100 kPa, Gas	1.012
353.1 K, 220 kPa, Gas	1.017
353.1 K, 480 kPa, Gas	1.03
353.1 K, 530 kPa, Gas	1.033
353.1 K, 580 kPa, Gas	1.036
353.1 K, 680 kPa, Gas	1.041
353.1 K, 780 kPa, Gas	1.047
353.1 K, 870 kPa, Gas	1.052
353.1 K, 970 kPa, Gas	1.058
353.1 K, 1070 kPa, Gas	1.064
353.1 K, 1180 kPa, Gas	1.071
353.1 K, 1270 kPa, Gas	1.078
353.1 K, 1340 kPa, Gas	1.082
353.1 K, 1440 kPa, Gas	1.09
353.1 K, 1540 kPa, Gas	1.098
353.1 K, 1700 kPa, Gas	1.109
353.1 K, 1890 kPa, Gas	1.128
353.1 K, 2150 kPa, Gas	1.178
353.1 K, 2200 kPa, Liquid	3.92
353.1 K, 4000 kPa, Liquid	3.98
353.1 K, 6400 kPa, Liquid	4.07
353.1 K, 8200 kPa, Liquid	4.13
353.1 K, 10200 kPa, Liquid	4.19
353.1 K, 12200 kPa, Liquid	4.24
353.1 K, 14200 kPa, Liquid	4.29
353.1 K, 16100 kPa, Liquid	4.33
353.1 K, 18200 kPa, Liquid	4.38
353.1 K, 20000 kPa, Liquid	4.42
353.1 K, 21800 kPa, Liquid	4.45
353.1 K, 24000 kPa, Liquid	4.49
353.1 K, 25800 kPa, Liquid	4.52
353.1 K, 27700 kPa, Liquid	4.55
353.1 K, 29800 kPa, Liquid	4.58
363.4 K, 850 kPa, Gas	1.048
363.4 K, 1050 kPa, Gas	1.059
363.4 K, 1200 kPa, Gas	1.068
363.4 K, 1410 kPa, Gas	1.081
363.4 K, 1580 kPa, Gas	1.092
363.4 K, 1750 kPa, Gas	1.104
363.4 K, 1890 kPa, Gas	1.116
363.4 K, 2070 kPa, Gas	1.131
363.4 K, 2280 kPa, Gas	1.15
363.4 K, 2800 kPa, Liquid	3.63
363.4 K, 4200 kPa, Liquid	3.71
363.4 K, 6200 kPa, Liquid	3.8
363.4 K, 8000 kPa, Liquid	3.88
363.4 K, 10200 kPa, Liquid	3.95
363.4 K, 12200 kPa, Liquid	4.01
363.4 K, 14200 kPa, Liquid	4.06
363.4 K, 16000 kPa, Liquid	4.11
363.4 K, 18000 kPa, Liquid	4.16
363.4 K, 20000 kPa, Liquid	4.2
363.4 K, 22000 kPa, Liquid	4.24
363.4 K, 24000 kPa, Liquid	4.28
363.4 K, 26000 kPa, Liquid	4.31
363.4 K, 28000 kPa, Liquid	4.35
363.4 K, 30500 kPa, Liquid	4.4
372.9 K, 3400 kPa, Liquid	3.38
372.9 K, 4200 kPa, Liquid	3.44
372.9 K, 6100 kPa, Liquid	3.57
372.9 K, 8300 kPa, Liquid	3.66
372.9 K, 10200 kPa, Liquid	3.73
372.9 K, 12200 kPa, Liquid	3.81
372.9 K, 14400 kPa, Liquid	3.88
372.9 K, 16200 kPa, Liquid	3.91
372.9 K, 18300 kPa, Liquid	3.96
372.9 K, 20000 kPa, Liquid	4
372.9 K, 22300 kPa, Liquid	4.05
372.9 K, 24100 kPa, Liquid	4.09
372.9 K, 26200 kPa, Liquid	4.14
372.9 K, 27800 kPa, Liquid	4.16
372.9 K, 29200 kPa, Liquid	4.18
382.9 K, 4000 kPa, Liquid	3.08
382.9 K, 6200 kPa, Liquid	3.31
382.9 K, 8100 kPa, Liquid	3.43
382.9 K, 10000 kPa, Liquid	3.53
382.9 K, 12300 kPa, Liquid	3.62
382.9 K, 14200 kPa, Liquid	3.68
382.9 K, 16100 kPa, Liquid	3.74
382.9 K, 18000 kPa, Liquid	3.79
382.9 K, 20000 kPa, Liquid	3.84
382.9 K, 22000 kPa, Liquid	3.89
382.9 K, 24000 kPa, Liquid	3.93
382.9 K, 26000 kPa, Liquid	3.97
382.9 K, 27900 kPa, Liquid	4.01
382.9 K, 30100 kPa, Liquid	4.05
393 K, 6200 kPa, Liquid	3.01
393 K, 8400 kPa, Liquid	3.21
393 K, 10000 kPa, Liquid	3.3
393 K, 12300 kPa, Liquid	3.4
393 K, 14200 kPa, Liquid	3.47
393 K, 16200 kPa, Liquid	3.54
393 K, 18200 kPa, Liquid	3.6
393 K, 20000 kPa, Liquid	3.65
393 K, 22000 kPa, Liquid	3.7
393 K, 24000 kPa, Liquid	3.75
393 K, 26000 kPa, Liquid	3.79
393 K, 27800 kPa, Liquid	3.83
393 K, 29500 kPa, Liquid	3.86
402.9 K, 6900 kPa, Fluid (supercritical or subcritical phases)	2.75
402.9 K, 8600 kPa, Fluid (supercritical or subcritical phases)	2.96
402.9 K, 10200 kPa, Fluid (supercritical or subcritical phases)	3.08
402.9 K, 12000 kPa, Fluid (supercritical or subcritical phases)	3.19
402.9 K, 14200 kPa, Fluid (supercritical or subcritical phases)	3.28
402.9 K, 16100 kPa, Fluid (supercritical or subcritical phases)	3.35
402.9 K, 18000 kPa, Fluid (supercritical or subcritical phases)	3.4
402.9 K, 20000 kPa, Fluid (supercritical or subcritical phases)	3.47
402.9 K, 21700 kPa, Fluid (supercritical or subcritical phases)	3.51
402.9 K, 23600 kPa, Fluid (supercritical or subcritical phases)	3.55
402.9 K, 25800 kPa, Fluid (supercritical or subcritical phases)	3.61
402.9 K, 27100 kPa, Fluid (supercritical or subcritical phases)	3.64
402.9 K, 29500 kPa, Fluid (supercritical or subcritical phases)	3.68
